Test results from ChEMBL document CHEMBL1201862, “PubChem BioAssay data set” (2004).
Activity calls are given as the source filed them.

What was measured:
[1] = target: T1, Aryl hydrocarbon receptor (Homo sapiens, UniProt P35869); experiment: Luminescence-based cell-based high throughput dose response assay for activators of the Aryl Hydrocarbon Receptor (AHR). [Related pubchem assays: 2796 (Primary screen (AHR activators in singlicate)), 2845 (Confirmation screen (AHR activators in triplicate)), 434939 (Counterscreen (PXR activators in triplicate)), 2804 (Summary (AHR activators))]; assay type: ADME
T1 sequence (P35869 whole entry): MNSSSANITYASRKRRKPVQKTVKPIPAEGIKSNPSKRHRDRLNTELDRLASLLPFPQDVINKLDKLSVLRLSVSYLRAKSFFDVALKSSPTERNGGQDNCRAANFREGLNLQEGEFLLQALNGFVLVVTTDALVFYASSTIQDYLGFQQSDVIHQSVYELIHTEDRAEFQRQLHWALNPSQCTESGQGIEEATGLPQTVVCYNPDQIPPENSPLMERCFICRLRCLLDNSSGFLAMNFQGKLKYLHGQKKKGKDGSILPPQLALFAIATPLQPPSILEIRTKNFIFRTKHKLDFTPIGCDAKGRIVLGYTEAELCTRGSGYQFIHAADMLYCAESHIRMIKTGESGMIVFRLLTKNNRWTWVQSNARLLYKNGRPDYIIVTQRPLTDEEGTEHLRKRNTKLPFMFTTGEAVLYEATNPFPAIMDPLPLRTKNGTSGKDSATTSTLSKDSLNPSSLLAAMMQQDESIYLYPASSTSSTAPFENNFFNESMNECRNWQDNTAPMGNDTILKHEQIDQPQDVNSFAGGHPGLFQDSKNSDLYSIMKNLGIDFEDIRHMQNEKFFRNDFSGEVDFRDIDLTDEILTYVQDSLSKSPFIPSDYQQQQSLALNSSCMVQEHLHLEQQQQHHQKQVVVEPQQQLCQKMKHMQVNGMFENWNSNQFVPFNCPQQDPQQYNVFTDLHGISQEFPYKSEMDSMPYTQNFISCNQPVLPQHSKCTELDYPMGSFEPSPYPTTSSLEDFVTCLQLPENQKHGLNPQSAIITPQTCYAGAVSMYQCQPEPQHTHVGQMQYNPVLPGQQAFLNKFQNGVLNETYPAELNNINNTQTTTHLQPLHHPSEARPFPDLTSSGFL

Galanin receptor type 2 = Galanin receptor type 2 (Homo sapiens, UniProt O43603); experiment: Dose Response cell-based high-throughput screening assay to identify antagonists of galanin receptor 2 (GALR2). [Related pubchem assays: 828, 866 ]; assay type: functional
Chain of Galanin receptor type 2 (O43603 whole entry): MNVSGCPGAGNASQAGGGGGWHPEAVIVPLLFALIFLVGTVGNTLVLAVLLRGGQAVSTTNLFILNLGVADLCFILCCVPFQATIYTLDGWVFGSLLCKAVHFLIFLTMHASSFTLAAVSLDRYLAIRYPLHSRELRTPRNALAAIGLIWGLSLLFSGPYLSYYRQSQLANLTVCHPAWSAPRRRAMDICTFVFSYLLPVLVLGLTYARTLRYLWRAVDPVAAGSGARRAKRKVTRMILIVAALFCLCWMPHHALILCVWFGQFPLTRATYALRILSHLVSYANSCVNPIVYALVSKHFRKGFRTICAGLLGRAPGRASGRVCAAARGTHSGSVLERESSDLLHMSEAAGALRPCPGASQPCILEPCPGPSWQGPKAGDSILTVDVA

HEK293 [2] = experiment: cells; settings: Homo sapiens
HEK293 [3] = experiment: cells; settings: Homo sapiens; remark: listed apart in the source
Vero [4] = experiment: host cell cytotoxicity of antiviral hits, dose response, cytotoxicity control for West Nile virus antiviral project, secondary assay (AID 1650); assay type: functional; settings: Chlorocebus sabaeus
Vero [5] = experiment: West Nile virus antiviral activity, cell-based, CPE readout (AID 1621); assay type: functional; settings: Chlorocebus sabaeus
[6] = cytotoxicity toward NIH3T3 fibroblasts, dose response, counter-screen, cell-based, ATP luminescence, mouse fibroblasts (AID 2010); assay type: functional;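 further: cells exposed to compound for about 90 hours before reading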
[7] = inhibitors of intracellular T. cruzi replication, confirmation, NIH3T3 host cells, beta-gal luminescence (AID 2044); assay type: functional, cell-based;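 further: intracellular parasites grown in NIH/3T3 mouse fibroblasts as host cells; luminescent beta-galactosidase reporter signal from transgenic T. cruzi replicating inside host cells; inhibitors lower the luminescence signal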
cells [8] = experiment: cells
[9] = target: Nucleotide-binding oligomerization domain-containing protein 2 (Homo sapiens, UniProt Q9HC29); experiment: NOD2 signaling inhibitors, cell-based, luminescence, uHTS, HEK293 (AID 1566); assay type: functional
Chain of Nucleotide-binding oligomerization domain-containing protein 2 (Q9HC29 whole entry, the tested form may be a part): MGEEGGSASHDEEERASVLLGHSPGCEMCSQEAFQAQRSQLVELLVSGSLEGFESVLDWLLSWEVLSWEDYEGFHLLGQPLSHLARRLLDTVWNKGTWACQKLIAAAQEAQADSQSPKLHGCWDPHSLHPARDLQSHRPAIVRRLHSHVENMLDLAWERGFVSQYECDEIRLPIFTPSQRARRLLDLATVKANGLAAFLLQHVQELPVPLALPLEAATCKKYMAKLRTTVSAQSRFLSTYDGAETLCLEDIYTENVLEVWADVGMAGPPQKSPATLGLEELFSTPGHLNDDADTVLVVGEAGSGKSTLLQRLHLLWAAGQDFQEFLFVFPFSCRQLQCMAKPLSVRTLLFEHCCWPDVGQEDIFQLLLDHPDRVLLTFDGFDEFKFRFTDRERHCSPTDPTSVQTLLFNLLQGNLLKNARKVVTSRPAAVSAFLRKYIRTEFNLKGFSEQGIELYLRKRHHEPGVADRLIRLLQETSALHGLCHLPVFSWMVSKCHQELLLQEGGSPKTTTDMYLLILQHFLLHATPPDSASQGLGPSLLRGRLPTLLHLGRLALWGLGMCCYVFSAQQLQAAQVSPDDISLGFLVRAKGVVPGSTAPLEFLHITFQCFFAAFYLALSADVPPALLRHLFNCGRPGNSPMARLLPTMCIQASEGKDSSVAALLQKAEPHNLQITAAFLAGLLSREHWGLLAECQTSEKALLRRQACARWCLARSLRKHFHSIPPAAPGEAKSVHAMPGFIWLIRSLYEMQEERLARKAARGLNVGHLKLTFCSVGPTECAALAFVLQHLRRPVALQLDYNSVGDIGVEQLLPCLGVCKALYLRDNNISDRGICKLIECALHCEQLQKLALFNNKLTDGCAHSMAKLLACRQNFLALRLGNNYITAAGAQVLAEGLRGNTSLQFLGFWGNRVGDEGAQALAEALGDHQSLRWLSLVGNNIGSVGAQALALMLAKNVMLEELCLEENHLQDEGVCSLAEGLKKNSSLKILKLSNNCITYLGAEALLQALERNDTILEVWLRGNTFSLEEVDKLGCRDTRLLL

[10] = system: Streptococcus sp. 'group A'; experiment: growth inhibition of control SK(-) GAS strain, dose response, counter-screen for streptokinase expression inhibitor project, luminescence, kanamycin, BacTiterGlo, confirmation (AID 1900); assay type: functional, organism-based
[11] = Luminescence-based dose response cell-based high throughput screening assay for cytotoxic compounds using the IEC-6 intestinal epithelial cell line. [Related pubchem assays: 1858 (Summary AID.), 1825 (Counterscreen.), 1907 (Confirmation screen.)]; assay type: functional
[12] = HepG2 cell cytotoxicity, dose response, cytotoxicity control for Shn3 inhibitor project, CellTiter-Glo, cherry-picked (AID 624134); assay type: functional, cell-based
Streptococcus = experiment: Group A Streptococcus viability loss, dose response, counter-screen for streptokinase expression inhibitor project, luminescence, BacTiterGlo (AID 1915); assay type: functional, organism-based;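 further: potency for reduction of bacterial viability or growth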
BJ [13] = experiment: cells; assay type: functional, cell-based; settings: Homo sapiens
BJ [14] = experiment: cytotoxicity toward BJ-TERT-LT-ST fibroblasts, dose response, cell-based, RAS-independent, luminescence (AID 1935); assay type: functional; settings: Homo sapiens;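 further: BJ fibroblasts immortalized with TERT plus LT and ST oncogenes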
[15] = cytotoxicity toward DRD oncogenic fibroblasts, dose response, cell-based, non-viral oncogenic, luminescence (AID 1934); assay type: functional; settings: Homo sapiens
[16] = Shn3 3'UTR reporter inhibitors, dose response, cell-based, Clone20 osteoblasts, firefly luciferase, cherry-picked (AID 624132); assay type: functional;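 further: firefly luciferase luminescence from reporter carrying the Shn3 3'UTR in osteoblasts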
[17] = control 3'UTR Renilla luciferase suppression, dose response, counter-screen for Shn3 inhibitor project, cell-based, Clone20-Shn3RL, cherry-picked (AID 624133); assay type: functional
HEK293 [18] = experiment: NOD1 signaling inhibitors, primary screen, cell-based, luminescence, uHTS (AID 1578); assay type: functional; settings: Homo sapiens
BJ [19] = experiment: cytotoxicity toward BJ-TERT fibroblasts, dose response, cell-based, RAS-independent, luminescence (AID 1933); assay type: functional; settings: Homo sapiens
HEK293 [20] = experiment: cells; assay type: functional, cell-based; settings: Homo sapiens
cells [21] = assay type: functional, cell-based
HEK293 [22] = experiment: inhibitors of LMP1-driven NF-kB reporter, dose response, cell-based, HEK293, luciferase, cherry-pick (AID 588343); assay type: functional; settings: Homo sapiens
HEK293 [23] = experiment: cells; assay type: functional, cell-based; settings: Homo sapiens; remark: listed apart in the source
HEK293 [24] = experiment: cells; assay type: functional, cell-based; settings: Homo sapiens; remark: listed apart in the source
cells [25] = assay type: functional, cell-based; remark: listed apart in the source
HEK293 [26] = experiment: NOD2 signaling inhibitors in MDP-stimulated cells, cell-based, uHTS, luminescence (AID 2001); assay type: functional; settings: Homo sapiens

In the case of COc1ccccc1NC(=O)c1ccc2c(c1)nnn2C, the EC50 [1] is reported as 0.195 µM (active).

For CN(C(S)=NC1CCCCC1)C1(c2ccccc2Cl)CCCCC1=O (stereo not given), the IC50 (Galanin receptor type 2) was > 42 µM (not active), the EC50 (HEK293 [2]) was > 59.6 µM (inactive) and the EC50 (HEK293 [3]) was > 59.6 µM (inactive).

In the case of CN(C)CCCNC(=O)c1cc2sc3ccccc3c2s1, the CC50 (Vero [4]) is reported as 14.6 µM (active) and the IC50 (Vero [5]) is reported as 21.4 µM (active).

With O=C1NC(=O)N(C2CCCCCC2)C(=O)/C1=C/NC1CCN(Cc2ccccc2)CC1 the EC50 [6] was 23.5 µM (active), the EC50 [7] was < 0.1 µM (active) and the EC50 (cells [8]) was 0.361 µM (active).

In the case of CC(=O)NC(c1ccc(Cl)cc1Cl)c1ccc2cccnc2c1O (stereo not given), the EC50 [9] is reported as > 20 µM (inactive), the EC50 [10] is reported as 4.98 µM (active) and the IC50 [11] is reported as 0.386 µM (active). For the same compound, the EC50 [6] was 0.192 µM (active), the EC50 [7] was 0.163 µM (active) and the AC50 [12] was 0.764 µM (active). The EC50 (Streptococcus) was 6.93 µM (active), the EC50 (BJ [13]) was 6.93 µM (active) and the EC50 (BJ [14]) was 2.82 µM (inconclusive). For the same compound, the EC50 [15] was 0.95 µM (active), the AC50 [16] was 0.465 µM (active) and the AC50 [17] was 0.778 µM (active). The EC50 (HEK293 [18]) was > 20 µM (inactive), the EC50 (BJ [19]) was 0.837 µM (active) and the IC50 (HEK293 [20]) was > 20 µM (inactive). For the same compound, the EC50 (cells [21]) was 4.6 µM (active), the AC50 (HEK293 [22]) was 4.24 µM (active) and the IC50 (HEK293 [23]) was 12 µM (active). The IC50 (HEK293 [24]) was > 20 µM (inactive), the EC50 (cells [25]) was > 350 µM (not active) and the IC50 (HEK293 [26]) was > 20 µM (inactive).
